{"source": "paper PMC10486429", "about": "“Investigations Using Albumin Binders to Modify the Tissue Distribution Profile of Radiopharmaceuticals Exemplified with Folate Radioconjugates” (Cancers, 2023)", "tested_on": "KB tumor-bearing athymic nude mice", "test": "Biodistribution of 177Lu-RedFols in KB tumor-bearing mice", "type": "in vivo, mouse", "description": "Athymic nude mice (Crl:CD1-Foxn^nu) were kept on a folate-deficient rodent diet (ssniff Spezialdiäten GmbH, Soest, Germany) for at least one week prior to inoculation with the tumor cells. Biodistribution studies were performed approx. two weeks after subcutaneous inoculation with KB tumor cells (5 × 10^6 in 100 μL PBS) (Supplementary Materials Section S12). […] Data were presented as the average ± SD of n = 3−4 mice.\nPurpose: Biodistribution studies were performed in KB tumor-bearing athymic nude mice (Crl:CD1-Foxnnu) in order to investigate the tissue distribution profiles of the novel radioconjugates. The aim was to compare the impact of the two different albumin binders (4-(p-iodophenyl)butanoate unit vs. 5-(p-iodophenyl)pentanoate unit), and that of the in-corporation of an AMBA linker adjacent to the albumin binder on the distribution profile of the resulting folate radioconjugates.\nMethods: The methods are described in the main article. The mice were sacrificed at […]"}
{"smiles": "CN1c2c(nc(N)[nH]c2=O)NC[C@H]1CNc1ccc(C(=O)N[C@@H](CCC(=O)N[C@@H](CCCCNC(=O)CN2CCN(CC(=O)O)CCN(CC(=O)O)CCN(CC(=O)O)CC2)C(=O)N[C@@H](CCCCNC(=O)c2ccc(CNC(=O)CCCCc3ccc(I)cc3)cc2)C(=O)O)C(=O)O)cc1", "note": "[[^177Lu]Lu-6R-RedFol-25, metal not drawn]", "values": [{"measurement": "Blood, accumulated activity", "setting": "1 h p.i.", "value": "13 ± 3", "unit": "% IA/g"}, {"measurement": "Bone, accumulated activity", "setting": "1 h p.i.", "value": "1.5 ± 0.3", "unit": "% IA/g"}, {"measurement": "Intestines, accumulated activity", "setting": "1 h p.i.", "value": "1.7 ± 0.3", "unit": "% IA/g"}, {"measurement": "KB tumor, accumulated activity", "setting": "1 h p.i.", "value": "15 ± 1", "unit": "% IA/g"}, {"measurement": "Kidneys, accumulated activity", "setting": "1 h p.i.", "value": "22 ± 3", "unit": "% IA/g"}, {"measurement": "Liver, accumulated activity", "setting": "1 h p.i.", "value": "2.3 ± 0.6", "unit": "% IA/g"}, {"measurement": "Lung, accumulated activity", "setting": "1 h p.i.", "value": "5.8 ± 1.7", "unit": "% IA/g"}, {"measurement": "Muscle, accumulated activity", "setting": "1 h p.i.", "value": "1.4 ± 0.1", "unit": "% IA/g"}, {"measurement": "Salivary glands, accumulated activity", "setting": "1 h p.i.", "value": "4.7 ± 3.3", "unit": "% IA/g"}, {"measurement": "Spleen, accumulated activity", "setting": "1 h p.i.", "value": "1.7 ± 0.3", "unit": "% IA/g"}, {"measurement": "Stomach, accumulated activity", "setting": "1 h p.i.", "value": "1.7 ± 0.2", "unit": "% IA/g"}, {"measurement": "Tumor-to-blood ratio", "setting": "1 h p.i.", "value": "1.2 ± 0.4"}, {"measurement": "Tumor-to-kidney ratio", "setting": "1 h p.i.", "value": "0.67 ± 0.07"}, {"measurement": "Tumor-to-liver ratio", "setting": "1 h p.i.", "value": "6.8 ± 2.4"}, {"measurement": "Blood, accumulated activity", "setting": "4 h p.i.", "value": "6.1 ± 0.5", "unit": "% IA/g"}, {"measurement": "Bone, accumulated activity", "setting": "4 h p.i.", "value": "1.1 ± 0.1", "unit": "% IA/g"}, {"measurement": "Intestines, accumulated activity", "setting": "4 h p.i.", "value": "0.78 ± 0.15", "unit": "% IA/g"}, {"measurement": "KB tumor, accumulated activity", "setting": "4 h p.i.", "value": "30 ± 3", "unit": "% IA/g"}, {"measurement": "Kidneys, accumulated activity", "setting": "4 h p.i.", "value": "39 ± 2", "unit": "% IA/g"}, {"measurement": "Liver, accumulated activity", "setting": "4 h p.i.", "value": "2.1 ± 0.2", "unit": "% IA/g"}, {"measurement": "Lung, accumulated activity", "setting": "4 h p.i.", "value": "3.4 ± 0.1", "unit": "% IA/g"}, {"measurement": "Muscle, accumulated activity", "setting": "4 h p.i.", "value": "1.3 ± 0.2", "unit": "% IA/g"}, {"measurement": "Salivary glands, accumulated activity", "setting": "4 h p.i.", "value": "4.8 ± 3.2", "unit": "% IA/g"}, {"measurement": "Spleen, accumulated activity", "setting": "4 h p.i.", "value": "1.2 ± 0.1", "unit": "% IA/g"}, {"measurement": "Stomach, accumulated activity", "setting": "4 h p.i.", "value": "1.1 ± 0.1", "unit": "% IA/g"}, {"measurement": "Tumor-to-blood ratio", "setting": "4 h p.i.", "value": "4.9 ± 0.2"}, {"measurement": "Tumor-to-kidney ratio", "setting": "4 h p.i.", "value": "0.78 ± 0.11"}, {"measurement": "Tumor-to-liver ratio", "setting": "4 h p.i.", "value": "14 ± 1"}, {"measurement": "Blood, accumulated activity", "setting": "24 h p.i.", "value": "0.16 ± 0.08", "unit": "% IA/g"}, {"measurement": "Bone, accumulated activity", "setting": "24 h p.i.", "value": "0.50 ± 0.12", "unit": "% IA/g"}, {"measurement": "Intestines, accumulated activity", "setting": "24 h p.i.", "value": "0.26 ± 0.06", "unit": "% IA/g"}, {"measurement": "KB tumor, accumulated activity", "setting": "24 h p.i.", "value": "34 ± 5", "unit": "% IA/g"}, {"measurement": "Kidneys, accumulated activity", "setting": "24 h p.i.", "value": "48 ± 4", "unit": "% IA/g"}, {"measurement": "Liver, accumulated activity", "setting": "24 h p.i.", "value": "1.5 ± 0.2", "unit": "% IA/g"}, {"measurement": "Lung, accumulated activity", "setting": "24 h p.i.", "value": "0.78 ± 0.23", "unit": "% IA/g"}, {"measurement": "Muscle, accumulated activity", "setting": "24 h p.i.", "value": "1.1 ± 0.6", "unit": "% IA/g"}, {"measurement": "Salivary glands, accumulated activity", "setting": "24 h p.i.", "value": "3.1 ± 2.0", "unit": "% IA/g"}, {"measurement": "Spleen, accumulated activity", "setting": "24 h p.i.", "value": "0.60 ± 0.04", "unit": "% IA/g"}, {"measurement": "Stomach, accumulated activity", "setting": "24 h p.i.", "value": "0.44 ± 0.06", "unit": "% IA/g"}, {"measurement": "Tumor-to-blood ratio", "setting": "24 h p.i.", "value": "247 ± 101"}, {"measurement": "Tumor-to-kidney ratio", "setting": "24 h p.i.", "value": "0.72 ± 0.15"}, {"measurement": "Tumor-to-liver ratio", "setting": "24 h p.i.", "value": "23 ± 7"}]}
{"smiles": "CN1c2c(nc(N)[nH]c2=O)NCC1CNc1ccc(C(=O)NC(CCC(=O)NC(CCCCNC(=O)CN2CCN(CC(=O)[O-])CCN(CC(=O)[O-])CCN(CC(=O)[O-])CC2)C(=O)NC(CCCCNC(=O)c2ccc(CNC(=O)CCCc3ccc(I)cc3)cc2)C(=O)O)C(=O)O)cc1.[177Lu+3]", "note": "(stereo not drawn) [[^177Lu]Lu-6S-RedFol-3]", "values": [{"measurement": "Blood, accumulated activity", "setting": "1 h p.i.", "value": "22 ± 1", "unit": "% IA/g"}, {"measurement": "Bone, accumulated activity", "setting": "1 h p.i.", "value": "1.9 ± 0.1", "unit": "% IA/g"}, {"measurement": "Intestines, accumulated activity", "setting": "1 h p.i.", "value": "2.3 ± 0.8", "unit": "% IA/g"}, {"measurement": "KB tumor, accumulated activity", "setting": "1 h p.i.", "value": "7.9 ± 1.2", "unit": "% IA/g"}, {"measurement": "Kidneys, accumulated activity", "setting": "1 h p.i.", "value": "12 ± 1", "unit": "% IA/g"}, {"measurement": "Liver, accumulated activity", "setting": "1 h p.i.", "value": "3.7 ± 0.2", "unit": "% IA/g"}, {"measurement": "Lung, accumulated activity", "setting": "1 h p.i.", "value": "9.3 ± 1.7", "unit": "% IA/g"}, {"measurement": "Muscle, accumulated activity", "setting": "1 h p.i.", "value": "1.4 ± 0.1", "unit": "% IA/g"}, {"measurement": "Salivary glands, accumulated activity", "setting": "1 h p.i.", "value": "4.1 ± 0.3", "unit": "% IA/g"}, {"measurement": "Spleen, accumulated activity", "setting": "1 h p.i.", "value": "2.4 ± 0.2", "unit": "% IA/g"}, {"measurement": "Stomach, accumulated activity", "setting": "1 h p.i.", "value": "1.8 ± 0.2", "unit": "% IA/g"}, {"measurement": "Tumor-to-blood ratio", "setting": "1 h p.i.", "value": "0.36 ± 0.06"}, {"measurement": "Tumor-to-kidney ratio", "setting": "1 h p.i.", "value": "0.66 ± 0.09"}, {"measurement": "Tumor-to-liver ratio", "setting": "1 h p.i.", "value": "2.1 ± 0.4"}, {"measurement": "Blood, accumulated activity", "setting": "4 h p.i.", "value": "14 ± 1", "unit": "% IA/g"}, {"measurement": "Bone, accumulated activity", "setting": "4 h p.i.", "value": "1.8 ± 0.1", "unit": "% IA/g"}, {"measurement": "Intestines, accumulated activity", "setting": "4 h p.i.", "value": "1.7 ± 0.4", "unit": "% IA/g"}, {"measurement": "KB tumor, accumulated activity", "setting": "4 h p.i.", "value": "16 ± 1", "unit": "% IA/g"}, {"measurement": "Kidneys, accumulated activity", "setting": "4 h p.i.", "value": "11 ± 2", "unit": "% IA/g"}, {"measurement": "Liver, accumulated activity", "setting": "4 h p.i.", "value": "2.4 ± 0.2", "unit": "% IA/g"}, {"measurement": "Lung, accumulated activity", "setting": "4 h p.i.", "value": "7.7 ± 2.6", "unit": "% IA/g"}, {"measurement": "Muscle, accumulated activity", "setting": "4 h p.i.", "value": "1.2 ± 0.2", "unit": "% IA/g"}, {"measurement": "Salivary glands, accumulated activity", "setting": "4 h p.i.", "value": "2.8 ± 0.4", "unit": "% IA/g"}, {"measurement": "Spleen, accumulated activity", "setting": "4 h p.i.", "value": "1.7 ± 0.2", "unit": "% IA/g"}, {"measurement": "Stomach, accumulated activity", "setting": "4 h p.i.", "value": "1.3 ± 0.1", "unit": "% IA/g"}, {"measurement": "Tumor-to-blood ratio", "setting": "4 h p.i.", "value": "1.1 ± 0.1"}, {"measurement": "Tumor-to-kidney ratio", "setting": "4 h p.i.", "value": "1.4 ± 0.2"}, {"measurement": "Tumor-to-liver ratio", "setting": "4 h p.i.", "value": "6.5 ± 0.2"}, {"measurement": "Blood, accumulated activity", "setting": "24 h p.i.", "value": "8.7 ± 1.1", "unit": "% IA/g"}, {"measurement": "Bone, accumulated activity", "setting": "24 h p.i.", "value": "1.2 ± 0.2", "unit": "% IA/g"}, {"measurement": "Intestines, accumulated activity", "setting": "24 h p.i.", "value": "1.0 ± 0.1", "unit": "% IA/g"}, {"measurement": "KB tumor, accumulated activity", "setting": "24 h p.i.", "value": "41 ± 2", "unit": "% IA/g"}, {"measurement": "Kidneys, accumulated activity", "setting": "24 h p.i.", "value": "30 ± 1", "unit": "% IA/g"}, {"measurement": "Liver, accumulated activity", "setting": "24 h p.i.", "value": "1.8 ± 0.4", "unit": "% IA/g"}, {"measurement": "Lung, accumulated activity", "setting": "24 h p.i.", "value": "4.8 ± 0.7", "unit": "% IA/g"}, {"measurement": "Muscle, accumulated activity", "setting": "24 h p.i.", "value": "1.0 ± 0.2", "unit": "% IA/g"}, {"measurement": "Salivary glands, accumulated activity", "setting": "24 h p.i.", "value": "2.3 ± 0.4", "unit": "% IA/g"}, {"measurement": "Spleen, accumulated activity", "setting": "24 h p.i.", "value": "2.3 ± 0.1", "unit": "% IA/g"}, {"measurement": "Stomach, accumulated activity", "setting": "24 h p.i.", "value": "1.1 ± 0.1", "unit": "% IA/g"}, {"measurement": "Tumor-to-blood ratio", "setting": "24 h p.i.", "value": "4.7 ± 0.3"}, {"measurement": "Tumor-to-kidney ratio", "setting": "24 h p.i.", "value": "1.3 ± 0.1"}, {"measurement": "Tumor-to-liver ratio", "setting": "24 h p.i.", "value": "24 ± 4"}]}
